Source: ChEMBL document CHEMBL1146101, “Fluorine-substituted cyclofenil derivatives as estrogen receptor ligands: synthesis and structure-affinity relationship study of potential positron emission tomography agents for imaging estrogen receptors in breast cancer” (J Med Chem, 2006)

Legend:
Homo sapiens = species: Homo sapiens; assay: Selectivity for ERbeta over ERalpha
[1] = target: Estrogen receptor beta (Homo sapiens) (UniProt Q92731); assay: Binding affinity to human ERbeta relative to estradiol by radiometric binding assay
[2] = target: Estrogen receptor alpha (Homo sapiens) (UniProt P03372); assay: Binding affinity to human ERalpha relative to estradiol by radiometric binding assay
Estrogen receptor alpha (Homo sapiens), sequence (P03372 whole entry, looked up): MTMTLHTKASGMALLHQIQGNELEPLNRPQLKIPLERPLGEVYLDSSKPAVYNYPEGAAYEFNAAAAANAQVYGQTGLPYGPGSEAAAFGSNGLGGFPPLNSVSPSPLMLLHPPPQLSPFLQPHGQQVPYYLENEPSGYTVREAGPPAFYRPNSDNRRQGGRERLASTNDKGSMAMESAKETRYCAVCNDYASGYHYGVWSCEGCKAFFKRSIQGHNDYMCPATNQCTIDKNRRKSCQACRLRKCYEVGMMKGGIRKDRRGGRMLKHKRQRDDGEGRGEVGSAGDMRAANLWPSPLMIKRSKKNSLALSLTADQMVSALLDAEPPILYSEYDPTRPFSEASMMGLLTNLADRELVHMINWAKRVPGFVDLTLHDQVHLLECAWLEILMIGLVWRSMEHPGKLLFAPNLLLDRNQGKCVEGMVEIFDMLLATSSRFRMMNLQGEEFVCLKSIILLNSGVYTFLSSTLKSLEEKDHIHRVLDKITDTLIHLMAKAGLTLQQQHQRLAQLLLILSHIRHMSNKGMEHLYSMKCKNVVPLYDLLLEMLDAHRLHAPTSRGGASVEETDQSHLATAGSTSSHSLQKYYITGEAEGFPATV

Estrogen receptor beta (Homo sapiens), sequence (Q92731 whole entry, looked up): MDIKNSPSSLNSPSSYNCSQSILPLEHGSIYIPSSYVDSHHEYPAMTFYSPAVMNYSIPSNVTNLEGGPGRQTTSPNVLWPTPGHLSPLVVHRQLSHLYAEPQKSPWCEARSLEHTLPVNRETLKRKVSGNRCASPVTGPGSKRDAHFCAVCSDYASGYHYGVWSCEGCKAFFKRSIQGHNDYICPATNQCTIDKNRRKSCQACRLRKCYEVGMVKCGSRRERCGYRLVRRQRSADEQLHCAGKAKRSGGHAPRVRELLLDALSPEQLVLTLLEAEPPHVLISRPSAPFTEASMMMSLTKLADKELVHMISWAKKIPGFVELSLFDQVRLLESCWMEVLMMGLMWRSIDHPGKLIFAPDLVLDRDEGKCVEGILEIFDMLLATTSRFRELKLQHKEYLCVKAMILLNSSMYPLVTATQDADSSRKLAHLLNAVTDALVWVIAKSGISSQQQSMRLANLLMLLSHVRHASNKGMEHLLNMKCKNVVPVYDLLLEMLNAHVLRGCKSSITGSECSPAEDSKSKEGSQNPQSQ

Compound | Ratio (Homo sapiens) | relative binding affinity (RBA) [1] | relative binding affinity (RBA) [2]
OCCC1CCCC(=C(c2ccc(O)cc2)c2ccc(O)cc2)C1 (configuration not stated) | 1.7 | 57.6 | 33.9
Oc1ccc(C(=C2CCCCCC2)c2ccc(O)cc2)cc1 | 3.2 | 354 | 110
COC(=O)CC1CCCC(=C(c2ccc(O)cc2)c2ccc(O)cc2)C1 (configuration not stated) | 0.18 | 10.3 | 58.5
CCOC(=O)C1CCC(=C(c2ccc(O)cc2)c2ccc(O)cc2)CC1 (configuration not stated) | 0.45 | 3.02 | 6.77
OCCCC1CCCC(=C(c2ccc(O)cc2)c2ccc(O)cc2)C1 (configuration not stated) | 0.98 | 46.1 | 47.2
OCC1CCCC(=C(c2ccc(O)cc2)c2ccc(O)cc2)C1 (configuration not stated) | 1.6 | 39.6 | 24.8
CCOCC1CCC(=C(c2ccc(O)cc2)c2ccc(O)cc2)CC1 (configuration not stated) | 0.58 | 2.82 | 4.88
COC(=O)C(C(=O)OC)C1CCCC(=C(c2ccc(O)cc2)c2ccc(O)cc2)C1 (configuration not stated) | 0.012 | 0.234 | 19.5
Oc1ccc(C(=C2CCC(CCOCCCCF)CC2)c2ccc(O)cc2)cc1 (configuration not stated) | 0.38 | 1.45 | 3.77
Oc1ccc(C(=C2CCCC(CCF)C2)c2ccc(O)cc2)cc1 (configuration not stated) | 1.1 | 129 | 122
COC(=O)CC1CCC(=C(c2ccc(O)cc2)c2ccc(O)cc2)CC1 (configuration not stated) | 0.16 | 1.72 | 10.7
Oc1ccc(C(=C2CCCCC2)c2ccc(O)cc2)cc1 | 2.3 | 285 | 124
Oc1ccc(C(=C2CCCC(CCCF)C2)c2ccc(O)cc2)cc1 (configuration not stated) | 0.57 | 91.4 | 160
COC(=O)C1CCCC(=C(c2ccc(O)cc2)c2ccc(O)cc2)C1 (configuration not stated) | 1.5 | 36.5 | 23.7

Other lines, results leading:

Ratio (Homo sapiens) | relative binding affinity (RBA) [1] | relative binding affinity (RBA) [2] | Compound
0.99 | 0.841 | 0.846 | OCC1CCC(=C(c2ccc(O)cc2)c2ccc(O)cc2)CC1 (configuration not stated)
7.7 | 137 | 17.8 | Oc1ccc(C(=C2CCCC2)c2ccc(O)cc2)cc1
4.1 | 274 | 66.5 | CC1CCC(=C(c2ccc(O)cc2)c2ccc(O)cc2)CC1 (configuration not stated)
0.94 | 0.307 | 0.327 | Oc1ccc(C(=C2CCC(O)CC2)c2ccc(O)cc2)cc1 (configuration not stated)
3.7 | 20.5 | 5.61 | Oc1ccc(C(=C2CCC2)c2ccc(O)cc2)cc1
1.2 | 75.6 | 62.7 | CCC1CCC(=C(c2ccc(O)cc2)c2ccc(O)cc2)CC1 (configuration not stated)
2.3 | 61.8 | 27 | Oc1ccc(C(=C2CCC(F)CC2)c2ccc(O)cc2)cc1 (configuration not stated)
0.14 | 0.372 | 2.61 | OCCC1CCC(=C(c2ccc(O)cc2)c2ccc(O)cc2)CC1 (configuration not stated)
2.3 | 41.5 | 18.1 | Oc1ccc(C(=C2CCC(CF)CC2)c2ccc(O)cc2)cc1 (configuration not stated)
1.2 | 18.9 | 15.9 | Oc1ccc(C(=C2CCC(CCF)CC2)c2ccc(O)cc2)cc1 (configuration not stated)
